Test results reported in the NIST ThermoML archive (doi:10.1016/j.jct.2016.10.033).

Assay: refractive index (Na D-line) (dimensionless); xn = mol fraction of the nth substance listed
Conditions: 103 kPa, Liquid, Standard Abbe refractometry

CCO[Si](C)(C)OCC [dimethyldiethoxysilane] + CO[Si](C)(OC)c1ccccc1
refractive index
Conditions | 298.15 K | 303.15 K | 308.15 K | 313.15 K | 318.15 K
x2 = 0 | 1.38045 | 1.37791 | 1.37532 | 1.37275 | 1.37015
x2 = 0.05 | 1.38569 | 1.38315 | 1.38057 | 1.37799 | 1.37541
x2 = 0.1001 | 1.39089 | 1.38836 | 1.38582 | 1.38325 | 1.38071
x2 = 0.1499 | 1.39601 | 1.39351 | 1.39097 | 1.38844 | 1.38592
x2 = 0.2002 | 1.40114 | 1.39865 | 1.39614 | 1.39362 | 1.39108
x2 = 0.2501 | 1.40622 | 1.40372 | 1.40124 | 1.39874 | 1.39625
x2 = 0.3001 | 1.41123 | 1.40874 | 1.40626 | 1.40376 | 1.40129
x2 = 0.3499 | 1.41623 | 1.41376 | 1.41131 | 1.40883 | 1.4064
x2 = 0.4 | 1.42117 | 1.41873 | 1.41626 | 1.41378 | 1.41133
x2 = 0.4499 | 1.42609 | 1.42366 | 1.42126 | 1.41881 | 1.41639
x2 = 0.5 | 1.43096 | 1.42854 | 1.42613 | 1.42369 | 1.42133
x2 = 0.55 | 1.43582 | 1.4334 | 1.43098 | 1.42856 | 1.42618
x2 = 0.5999 | 1.44058 | 1.43819 | 1.43579 | 1.43336 | 1.43098
x2 = 0.65 | 1.44535 | 1.44296 | 1.44058 | 1.43819 | 1.43582
x2 = 0.6999 | 1.45008 | 1.4477 | 1.44531 | 1.4429 | 1.44055
x2 = 0.75 | 1.45489 | 1.45239 | 1.45002 | 1.44764 | 1.44527
x2 = 0.8 | 1.4594 | 1.45703 | 1.45464 | 1.45227 | 1.44991
x2 = 0.8498 | 1.464 | 1.46165 | 1.45929 | 1.45692 | 1.45455
x2 = 0.9 | 1.46859 | 1.46623 | 1.46388 | 1.46153 | 1.45918
x2 = 0.95 | 1.47312 | 1.47078 | 1.46843 | 1.46607 | 1.46372

C=C[Si](OC)(OC)OC [trimethoxy(vinyl)silane] + CO[Si](C)(OC)c1ccccc1
refractive index
Conditions | 298.15 K | 303.15 K | 308.15 K | 313.15 K | 318.15 K
x2 = 0 | 1.39022 | 1.38775 | 1.38535 | 1.3829 | 1.38046
x2 = 0.05 | 1.3954 | 1.39299 | 1.39056 | 1.38815 | 1.38572
x2 = 0.1 | 1.40052 | 1.39811 | 1.39569 | 1.39329 | 1.39082
x2 = 0.1499 | 1.40552 | 1.40314 | 1.40073 | 1.3983 | 1.39588
x2 = 0.2 | 1.41045 | 1.40807 | 1.40568 | 1.40327 | 1.40083
x2 = 0.2501 | 1.41527 | 1.41288 | 1.41047 | 1.40809 | 1.40568
x2 = 0.2999 | 1.41998 | 1.41762 | 1.41524 | 1.41284 | 1.41043
x2 = 0.35 | 1.42465 | 1.42228 | 1.41987 | 1.4175 | 1.4151
x2 = 0.4001 | 1.42919 | 1.42683 | 1.42444 | 1.42208 | 1.41967
x2 = 0.4501 | 1.43364 | 1.43129 | 1.42891 | 1.42653 | 1.42413
x2 = 0.5 | 1.43793 | 1.43559 | 1.43321 | 1.43084 | 1.42843
x2 = 0.5499 | 1.44232 | 1.43996 | 1.43759 | 1.4352 | 1.43283
x2 = 0.6 | 1.44653 | 1.44418 | 1.44182 | 1.43943 | 1.43706
x2 = 0.6499 | 1.45067 | 1.44831 | 1.44594 | 1.44356 | 1.4412
x2 = 0.7 | 1.45459 | 1.45224 | 1.4499 | 1.44754 | 1.44517
x2 = 0.75 | 1.45871 | 1.45636 | 1.454 | 1.45165 | 1.44929
x2 = 0.8001 | 1.46249 | 1.46015 | 1.45778 | 1.45542 | 1.45307
x2 = 0.8498 | 1.46647 | 1.46413 | 1.46178 | 1.45942 | 1.45707
x2 = 0.8999 | 1.47026 | 1.46791 | 1.46557 | 1.46321 | 1.46087
x2 = 0.9499 | 1.47397 | 1.47163 | 1.46928 | 1.46693 | 1.46458

CO[Si](C)(C)OC [dimethoxydimethylsilane] + CO[Si](C)(OC)c1ccccc1
refractive index
Conditions | 298.15 K | 303.15 K | 308.15 K | 313.15 K | 318.15 K
x2 = 0 | 1.36816 | 1.36559 | 1.36297 | 1.36035 | 1.35771
x2 = 0.0501 | 1.37551 | 1.37295 | 1.37035 | 1.36774 | 1.36513
x2 = 0.1001 | 1.3826 | 1.38005 | 1.37748 | 1.37492 | 1.37233
x2 = 0.15 | 1.38945 | 1.38696 | 1.38442 | 1.3819 | 1.37936
x2 = 0.2 | 1.3961 | 1.39364 | 1.39111 | 1.38864 | 1.38612
x2 = 0.25 | 1.40247 | 1.40001 | 1.39748 | 1.39498 | 1.39248
x2 = 0.2999 | 1.40864 | 1.40619 | 1.40369 | 1.40119 | 1.3987
x2 = 0.3499 | 1.41459 | 1.41213 | 1.40966 | 1.40726 | 1.4048
x2 = 0.4001 | 1.42041 | 1.41798 | 1.41551 | 1.41306 | 1.41059
x2 = 0.4501 | 1.42603 | 1.42366 | 1.42126 | 1.41886 | 1.41642
x2 = 0.5001 | 1.43147 | 1.42909 | 1.42667 | 1.42426 | 1.42184
x2 = 0.55 | 1.43672 | 1.43435 | 1.43195 | 1.42958 | 1.42718
x2 = 0.6 | 1.44182 | 1.43946 | 1.43707 | 1.43469 | 1.43232
x2 = 0.6499 | 1.44673 | 1.44437 | 1.44197 | 1.43957 | 1.43718
x2 = 0.6999 | 1.45155 | 1.4492 | 1.44681 | 1.44442 | 1.44204
x2 = 0.75 | 1.45621 | 1.45386 | 1.45148 | 1.44913 | 1.44677
x2 = 0.7997 | 1.46072 | 1.45837 | 1.456 | 1.45364 | 1.45125
x2 = 0.8499 | 1.46514 | 1.46278 | 1.46042 | 1.45805 | 1.45569
x2 = 0.8999 | 1.46939 | 1.46704 | 1.46469 | 1.46234 | 1.45999
x2 = 0.95 | 1.47356 | 1.47121 | 1.46886 | 1.46651 | 1.46417

C=C[Si](C)(OCC)OCC [methylvinyldiethoxysilane] + CO[Si](C)(OC)c1ccccc1
refractive index
Conditions | 298.15 K | 303.15 K | 308.15 K | 313.15 K | 318.15 K
x2 = 0 | 1.39751 | 1.39501 | 1.39249 | 1.38997 | 1.38742
x2 = 0.05 | 1.40161 | 1.39911 | 1.3966 | 1.39407 | 1.39153
x2 = 0.1001 | 1.40569 | 1.40322 | 1.40071 | 1.39819 | 1.39567
x2 = 0.1499 | 1.40975 | 1.40729 | 1.40481 | 1.4023 | 1.39979
x2 = 0.2001 | 1.41382 | 1.41135 | 1.40888 | 1.40639 | 1.40391
x2 = 0.2501 | 1.41792 | 1.41547 | 1.413 | 1.41052 | 1.40804
x2 = 0.3 | 1.42192 | 1.41948 | 1.41702 | 1.41456 | 1.41207
x2 = 0.3499 | 1.42595 | 1.42352 | 1.42108 | 1.41864 | 1.41615
x2 = 0.4 | 1.42999 | 1.42755 | 1.42511 | 1.42265 | 1.4202
x2 = 0.4501 | 1.43404 | 1.43161 | 1.42919 | 1.42673 | 1.4243
x2 = 0.5 | 1.43801 | 1.43558 | 1.43316 | 1.43072 | 1.42827
x2 = 0.5499 | 1.44203 | 1.43961 | 1.43721 | 1.43477 | 1.43237
x2 = 0.6 | 1.44606 | 1.44365 | 1.44126 | 1.43884 | 1.43645
x2 = 0.65 | 1.44994 | 1.44754 | 1.44513 | 1.44272 | 1.4403
x2 = 0.6999 | 1.45398 | 1.45159 | 1.44922 | 1.44683 | 1.44442
x2 = 0.75 | 1.45797 | 1.45558 | 1.45323 | 1.45086 | 1.44847
x2 = 0.7999 | 1.46196 | 1.45958 | 1.45722 | 1.45484 | 1.45248
x2 = 0.85 | 1.46589 | 1.46352 | 1.46116 | 1.45878 | 1.45641
x2 = 0.8998 | 1.46999 | 1.46763 | 1.46528 | 1.4629 | 1.46054
x2 = 0.9499 | 1.47377 | 1.47142 | 1.46907 | 1.46672 | 1.46435
